Test results from patent US20140121240A1, “NOVEL PHARMACEUTICAL COMPOSITION” (MARUHO CO., LTD., priority 2011, published 2014).

How the values were obtained:
[1] = system: histamine-induced scratching behavior; experiment: Antipruritic effect in histamine-induced scratching model (Experiment 2); assay type: in vivo, mouse
Description: [Antipruritic Effect of Test Compound in Histamine-Induced Scratching Model]
After topical administration of a 3% w/v solution of a test compound or a reference compound as described in the following Table 6 in acetone (50 μL) or a vehicle (acetone; 50 μL) onto right dorsal neck of ICR female mice similarly pre-treated as described in Experiment 1, these animals were placed into a testing apparatus (MicroAct). After one hour of the administration of said compound solution or vehicle, a solution (50 μL) of histamine in saline (300 nmol/50 μL) or saline (50 μL) was intradermally administered to right dorsal neck of each mouse. Immediately after the administration, scratching behavior (counts of scratching) was measured for 30 minutes by MicroAct.
Inhibition rate on scratching behavior of each test compound was evaluated in terms of the following formula based on the counts of scratching in the test group in which each test compound solution was administered followed by administration of a histamine solution in saline (counts of scratching in compound-treated group), and the counts of scratching in the test group in which a vehicle (acetone) was administered followed by administration of a histamine solution in saline (counts of scratching in vehicle-treated group).
Ratio of inhibition rate on scratching behavior of each test compound to that of Compound A was calculated as antipruritic activity (%). For reference, PDE4 inhibitory activity of each compound (IC50) which was measured by a conventional manner is also shown in such Table.

[2] = system: oxazolone-induced scratching behavior; experiment: Chronic oxazolone-induced dermatitis model: scratching behavior (Experiment 4); assay type: in vivo, mouse; details: for Counts of scratching (Mean ± standard error): Compound A 1%, Tacrolimus 0.1%, Dexamethasone 0.01% w/v in 0.25% oxazolone
Description: [Antipruritic Effect of Test Compound in Chronic Oxazolone-Induced Dermatitis Model]
A magnet for measurement was implanted into an instep part of right hindlimb of BALB/c male mouse (fed for one week from five-week old; Charles River Laboratories, Japan Inc.) under anesthesia, and on the same day, sensitization was carried out by topically administering 0.5% w/v solution (10 μL) of oxazolone in acetone respectively onto the both sides of right ear auricle of the animal (sensitization day). On each point of the 7th, 9th, 11th, 14th and 16th day reckoned from the day after the sensitization (1st day), each mouse was challenged by topical administration of a 10 μL solution of test compound [acetone (vehicle-treated group), 0.25% w/v solution of oxazolone in acetone (oxazolone-treated group), or a test compound solubilized in 0.25% w/v oxazolone solution in acetone (test compound-treated group)] onto the both sides of right ear auricle of the animal to produce inflammatory reactions. Immediately after the administration, scratching behavior (counts of scratching) was measured for two hours by MicroAct. Thickness of right ear auricle of each mouse was measured by a thickness gauge before and 24 hours after the topical administration of each test compound solution. The percentage described in the Table means “% w/v”.

For `COc1cc2cc(CO)c(CO)c(-c3ccnc(N4CC[C@H](O)c5ccccc54)c3)c2cc1OC` [Compound A, 1-[2-(4S)-4-hydroxy-1,2,3,4-tetrahydroquinolin-1-yl]-4-pyridyl]-2,3-bis(dihydroxymethyl)-6,7-dimethoxynaphthalene sesquihydrate], the “Antipruritic activity (ratio of inhibition rate on scratching behavior to that of Compound A)” value ([1]; 3% w/v in acetone 50 μL topical 1 h before histamine 300 nmol/50 μL, ICR female mice, counts for 30 minutes) was 100%, the “antipruritic effect in histamine-induced scratching model, result in words” value ([1]; 3% w/v topical, histamine 300 nmol/50 μL) was “remarkable antipruritic effect” and the “Counts of scratching (Mean ± standard error)” value ([2]; 7th day, BALB/c male mouse) was 931 ± 135 (**) beats/2 hr. For the same molecule, the “Counts of scratching (Mean ± standard error)” value ([2]; 9th day) was 664 ± 99 (**) beats/2 hr, the “Counts of scratching (Mean ± standard error)” value ([2]; 11th day) was 577 ± 77 (*) beats/2 hr and the “Counts of scratching (Mean ± standard error)” value ([2]; 14th day) was 863 ± 122 (**) beats/2 hr. The “inhibitory effect on the counts of scratching (antipruritic effect), result in words” value ([2]; 16th day) was “inhibitory effect on the counts of scratching” and the “Counts of scratching (Mean ± standard error)” value ([2]; 16th day) was 959 ± 166 (*) beats/2 hr.
